The values below come from publication PMC2801615, “Sex Pheromone Receptor Specificity in the European Corn Borer Moth, Ostrinia nubilalis” (PLoS ONE, 2010).

One may read the EC50 as the concentration that produces a half-maximal response.

The first experiment has as its target T1, OnOr6/2 (Ostrinia nubilalis, UniProt D3J5H9).
T1 construct: gene OR6; full-length ORF (421-425 residues for the set) in pGEMHE; cRNA co-injected with OnOr2 in Xenopus oocytes; dimer with Or83b ortholog; with Odorant receptor coreceptor
T1 sequence (D3J5H9 1-421): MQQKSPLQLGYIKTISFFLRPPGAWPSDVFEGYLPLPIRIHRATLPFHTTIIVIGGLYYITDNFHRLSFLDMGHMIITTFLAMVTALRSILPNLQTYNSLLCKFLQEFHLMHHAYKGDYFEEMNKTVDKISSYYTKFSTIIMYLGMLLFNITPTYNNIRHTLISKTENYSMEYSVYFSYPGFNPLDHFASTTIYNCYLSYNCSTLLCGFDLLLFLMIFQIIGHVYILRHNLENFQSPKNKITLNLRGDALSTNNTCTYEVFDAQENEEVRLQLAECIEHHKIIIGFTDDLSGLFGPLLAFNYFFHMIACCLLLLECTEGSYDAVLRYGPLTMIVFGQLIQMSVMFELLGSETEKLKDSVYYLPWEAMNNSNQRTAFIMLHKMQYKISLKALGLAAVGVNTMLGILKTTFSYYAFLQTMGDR
T1 sequence (D3J5H5 1-473 partner): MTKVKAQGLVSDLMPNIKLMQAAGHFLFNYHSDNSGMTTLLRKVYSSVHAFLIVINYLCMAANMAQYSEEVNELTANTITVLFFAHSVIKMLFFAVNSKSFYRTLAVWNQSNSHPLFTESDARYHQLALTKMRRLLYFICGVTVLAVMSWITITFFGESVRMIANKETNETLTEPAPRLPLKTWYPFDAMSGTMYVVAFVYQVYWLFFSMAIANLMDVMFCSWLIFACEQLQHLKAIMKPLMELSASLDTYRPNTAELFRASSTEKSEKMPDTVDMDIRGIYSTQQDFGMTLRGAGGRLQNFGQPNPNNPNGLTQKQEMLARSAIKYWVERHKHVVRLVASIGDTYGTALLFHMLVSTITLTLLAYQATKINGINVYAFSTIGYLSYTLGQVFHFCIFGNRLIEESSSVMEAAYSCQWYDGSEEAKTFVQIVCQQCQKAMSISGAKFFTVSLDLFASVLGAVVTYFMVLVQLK
Kind of experiment: two-electrode voltage clamp, Xenopus oocytes. The note with it: read-out: EC50 (μM ± SEM). In kind it is cell-based. The text has this: two-electrode voltage clamp, Xenopus oocytes on OnOr6/2
On the technique in general: In two-electrode clamp one electrode senses voltage and the other passes current.
In the case of `CC/C=C\CCCCCCCCCCOC(C)=O` [Z11, Z11–14:OAc], the EC50 was determined as 0.86 ± 0.27 µM.

The target of a further experiment is T2, OnOr1/2 (Ostrinia nubilalis, UniProt D3J5H4).
T2 construct: gene OR1; full-length ORF (421-425 residues for the set) in pGEMHE; cRNA co-injected with OnOr2 in Xenopus oocytes; dimer with Or83b ortholog; with Odorant receptor coreceptor
T2 sequence (D3J5H4 1-424): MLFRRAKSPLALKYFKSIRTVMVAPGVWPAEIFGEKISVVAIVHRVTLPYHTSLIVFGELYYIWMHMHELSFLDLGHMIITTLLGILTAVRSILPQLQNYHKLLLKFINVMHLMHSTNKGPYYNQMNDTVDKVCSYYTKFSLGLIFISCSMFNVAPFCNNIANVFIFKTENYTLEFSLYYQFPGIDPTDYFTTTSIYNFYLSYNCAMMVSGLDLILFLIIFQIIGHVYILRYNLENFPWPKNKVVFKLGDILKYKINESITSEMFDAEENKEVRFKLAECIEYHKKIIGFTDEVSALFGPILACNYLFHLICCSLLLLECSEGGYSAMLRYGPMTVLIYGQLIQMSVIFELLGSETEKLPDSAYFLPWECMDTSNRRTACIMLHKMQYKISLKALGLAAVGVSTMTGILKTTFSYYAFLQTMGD
T2 sequence (D3J5H5 1-473 partner): T1 sequence (D3J5H5 1-473 partner)
The experiment can be described thus: two-electrode voltage clamp, Xenopus oocytes. In kind it is cell-based. The note with it: read-out: EC50 (μM ± SEM). The text has this: two-electrode voltage clamp, Xenopus oocytes on OnOr1/2
`C/C=C/CCCCCCCCCCCOC(C)=O` [E12, E12–14:OAc]: the EC50 was determined as 0.26 ± 0.05 µM.
On the same count and under the same terms, the same measure for `CCCC/C=C\CCCCCCCCOC(C)=O` [Z9, Z9–14:OAc]: 1.54 ± 0.33 µM.
Consider `CC/C=C/CCCCCCCCCCOC(C)=O` [E11, E11–14:OAc], for which the EC50 is 1.92 ± 0.2 µM.
Take `C/C=C\CCCCCCCCCCCOC(C)=O` [Z12, Z12–14:OAc]: the half-maximal effective concentration (EC50) turned out to be 2.73 ± 0.24 µM.
For `CC/C=C\CCCCCCCCCCOC(C)=O` [Z11, Z11–14:OAc], the concentration giving a half-maximal response (EC50) turned out to be 0.34 ± 0.05 µM.
